Experimental data published in ChEMBL document CHEMBL1201862, “PubChem BioAssay data set” (2004).
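Protocol summary: plate cells (96-well), add compound at 5 concentrations, incubate 48 h, interpolate endpoints linearly. At the GI50, growth is halved.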 The source made the active and inactive calls. Rule as the data show it: active = GI50 up to about 1.1 µM and inactive = higher.

Assays:
Experiment in all cases: DTP human tumour cell line panel, 48 h
[1] = test system: A498
[2] = test system: ACHN
[3] = test system: CAKI-1
[4] = test system: EKVX
[5] = test system: HT-29
[6] = test system: Hs-578T
[7] = test system: KM12
[8] = test system: M14
[9] = test system: NCI-H23
[10] = test system: NCI-H460
[11] = test system: RXF 393
[12] = test system: SF-268
[13] = test system: SNB-19
[14] = test system: SR
[15] = test system: TK-10
[16] = test system: COLO 205
[17] = test system: HCT-116
[18] = test system: HOP-92
[19] = test system: MDA-MB-435
[20] = test system: MDA-N

Structure (SMILES) | GI50 [1] | GI50 [2] | GI50 [3] | GI50 [4] | GI50 [5] | GI50 [6] | GI50 [7] | GI50 [8] | GI50 [9] | GI50 [10] | GI50 [11] | GI50 [12] | GI50 [13] | GI50 [14] | GI50 [15] | GI50 [16] | GI50 [17] | GI50 [18] | GI50 [19] | GI50 [20]
COc1ccc2c(c1)C/C(=C\c1cccc3ccccc13)C2=O | 23.4 µM (inactive) | 27.6 µM (inactive) | > 100 µM (inactive) | 18.5 µM (inactive) | 4.91 µM (inactive) | 84.9 µM (inactive) | 5.41 µM (inactive) | 5.97 µM (inactive) | 2.84 µM (inactive) | 4.99 µM (inactive) | 0.0902 µM (active) | 18.4 µM (inactive) | 69.2 µM (inactive) | 4.65 µM (inactive) | 6.07 µM (inactive) |  |  |  |  | 
COc1ccc(N2C(=O)C3c4[nH]c5ccccc5c4C4CCCCC4C3C2=O)cc1 (configuration not stated) | 24.6 µM (inactive) | 22.5 µM (inactive) | 51.3 µM (inactive) | 17.3 µM (inactive) | 23.4 µM (inactive) |  | 38.5 µM (inactive) | 18 µM (inactive) | 25.8 µM (inactive) | 19.5 µM (inactive) | 20.8 µM (inactive) | 8.61 µM (inactive) | 50.6 µM (inactive) | 11.7 µM (inactive) | 21.3 µM (inactive) | 3.94 µM (inactive) | 7.11 µM (inactive) | 18.2 µM (inactive) |  | 
CC(Br)CN1CCOCC1 (configuration not stated) | > 100 µM (inactive) | > 100 µM (inactive) | > 100 µM (inactive) | > 100 µM (inactive) | > 100 µM (inactive) | > 100 µM (inactive) | > 100 µM (inactive) | > 100 µM (inactive) | > 100 µM (inactive) | > 100 µM (inactive) | > 100 µM (inactive) | > 100 µM (inactive) | > 100 µM (inactive) | 13.9 µM (inactive) | > 100 µM (inactive) | > 100 µM (inactive) | > 100 µM (inactive) | > 100 µM (inactive) | > 100 µM (inactive) | 
CCC(C)C1=C(O)[N+]2([O-])Oc3ccc(-c4c(O)c(O)c(-c5ccc(O)cc5)c(OC(C)=O)c4OC(C)=O)cc3OC2(C(C)CC)C(=O)N1O (configuration not stated) | > 50 µM (inactive) | > 50 µM (inactive) | > 50 µM (inactive) | 39.5 µM (inactive) | > 50 µM (inactive) |  | > 50 µM (inactive) | > 50 µM (inactive) | > 50 µM (inactive) | > 50 µM (inactive) | > 50 µM (inactive) | > 50 µM (inactive) | > 50 µM (inactive) | > 50 µM (inactive) | > 50 µM (inactive) | > 50 µM (inactive) | 18.2 µM (inactive) |  | 16.8 µM (inactive) | 17.1 µM (inactive)
Nc1n2nc(-c3ccccc3)sc2n[n+]1CC(=O)c1ccccc1 | 25.1 µM (inactive) | 12.9 µM (inactive) | 12.3 µM (inactive) | 31.6 µM (inactive) | 9.53 µM (inactive) | 47.6 µM (inactive) | 6.3 µM (inactive) | 10.1 µM (inactive) | 13.8 µM (inactive) | 11.5 µM (inactive) | 10.8 µM (inactive) | 24.4 µM (inactive) | 21.7 µM (inactive) |  | 27.4 µM (inactive) | 17 µM (inactive) |  |  | 2.72 µM (inactive) | 
O=C1/C(=C\c2ccc(Cl)cc2Cl)Sc2scc(-c3ccc(O)c(O)c3)[n+]21 |  | 18.8 µM (inactive) | 20.1 µM (inactive) | 19.9 µM (inactive) | 16.7 µM (inactive) | 27.2 µM (inactive) | 15.1 µM (inactive) | 16.3 µM (inactive) | 11.6 µM (inactive) | 16 µM (inactive) | 12.4 µM (inactive) | 30.3 µM (inactive) | 17.6 µM (inactive) |  | 12.7 µM (inactive) | 19 µM (inactive) | 14.5 µM (inactive) | 7.76 µM (inactive) | 12.2 µM (inactive) | 17.5 µM (inactive)
CCCC(=O)c1c(NOC2OCC(OC(C)=O)C(OC(C)=O)C2OC(C)=O)nc(OC)n(C)c1=O (configuration not stated) | > 100 µM (inactive) | > 100 µM (inactive) | > 100 µM (inactive) | > 100 µM (inactive) | > 100 µM (inactive) |  | > 100 µM (inactive) | > 100 µM (inactive) | > 100 µM (inactive) | > 100 µM (inactive) | > 100 µM (inactive) | > 100 µM (inactive) | > 100 µM (inactive) | > 100 µM (inactive) | > 100 µM (inactive) | > 100 µM (inactive) | > 100 µM (inactive) | > 100 µM (inactive) |  | 
O=C(O)CC(O)(c1ccccc1C(=O)O)c1cccc2ccccc12 (configuration not stated) | > 100 µM (inactive) | > 100 µM (inactive) | > 100 µM (inactive) | > 100 µM (inactive) | > 100 µM (inactive) |  | > 100 µM (inactive) | > 100 µM (inactive) | > 100 µM (inactive) | > 100 µM (inactive) | > 100 µM (inactive) | > 100 µM (inactive) | > 100 µM (inactive) | > 100 µM (inactive) | > 100 µM (inactive) | > 100 µM (inactive) | > 100 µM (inactive) | > 100 µM (inactive) |  | 
